Experimental data from patent US12528819B2 (priority 2016, dated 2026).
pKi: −log10 of the molar value. Read-outs that look alike come from different tables or passages of the source.

Columns and labels:
α5β3γ2 GABAA receptors = molecular target: T1, α5β3γ2 GABAA receptors (Homo sapiens, UniProt P18507+P31644); experiment: Binding activity of test compounds on GABAAR: inhibition of [3H]Ro15-1788 binding, membranes of Ltk cells
T1 construct: membranes
T1 sequence (P31644 32-462): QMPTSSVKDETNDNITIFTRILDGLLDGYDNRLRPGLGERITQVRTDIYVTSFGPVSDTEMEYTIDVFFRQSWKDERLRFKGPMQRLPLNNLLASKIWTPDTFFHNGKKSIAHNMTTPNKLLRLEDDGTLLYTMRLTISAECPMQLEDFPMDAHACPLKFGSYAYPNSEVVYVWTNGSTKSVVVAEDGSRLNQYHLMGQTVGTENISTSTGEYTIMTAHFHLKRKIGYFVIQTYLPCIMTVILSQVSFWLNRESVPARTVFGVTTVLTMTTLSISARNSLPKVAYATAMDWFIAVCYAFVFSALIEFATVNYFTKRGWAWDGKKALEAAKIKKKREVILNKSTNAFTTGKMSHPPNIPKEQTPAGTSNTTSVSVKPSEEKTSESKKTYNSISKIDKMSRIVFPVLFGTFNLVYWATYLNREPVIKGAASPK
T1 sequence (P28472 26-473 partner): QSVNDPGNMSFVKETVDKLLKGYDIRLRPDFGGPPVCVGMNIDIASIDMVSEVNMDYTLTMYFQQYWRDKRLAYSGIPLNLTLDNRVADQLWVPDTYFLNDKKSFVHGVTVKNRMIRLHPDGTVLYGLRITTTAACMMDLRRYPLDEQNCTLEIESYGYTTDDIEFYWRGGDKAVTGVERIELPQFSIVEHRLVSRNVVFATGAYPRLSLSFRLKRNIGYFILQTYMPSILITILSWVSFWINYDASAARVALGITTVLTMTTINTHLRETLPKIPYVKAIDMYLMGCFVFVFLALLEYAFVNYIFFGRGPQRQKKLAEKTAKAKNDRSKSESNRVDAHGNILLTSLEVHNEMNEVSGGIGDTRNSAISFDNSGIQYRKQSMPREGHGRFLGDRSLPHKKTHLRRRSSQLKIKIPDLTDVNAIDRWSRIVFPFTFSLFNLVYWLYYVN
T1 sequence (P18507 40-467 limits assumed): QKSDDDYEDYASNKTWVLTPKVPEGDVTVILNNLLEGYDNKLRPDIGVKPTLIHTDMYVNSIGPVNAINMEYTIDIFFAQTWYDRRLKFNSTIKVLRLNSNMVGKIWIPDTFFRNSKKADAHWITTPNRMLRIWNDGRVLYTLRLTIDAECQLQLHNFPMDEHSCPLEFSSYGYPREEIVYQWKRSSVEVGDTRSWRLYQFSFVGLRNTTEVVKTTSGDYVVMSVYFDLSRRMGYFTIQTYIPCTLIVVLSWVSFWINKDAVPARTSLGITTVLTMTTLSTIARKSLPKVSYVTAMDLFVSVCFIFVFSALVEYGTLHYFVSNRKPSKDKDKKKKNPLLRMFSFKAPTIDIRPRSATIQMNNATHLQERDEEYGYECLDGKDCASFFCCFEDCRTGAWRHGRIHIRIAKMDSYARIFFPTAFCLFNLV
Procedure: (A) Binding activity of test compounds on GABAAR
Tissue culture and Membrane Preparation: The binding was performed on Ltk cells stably expressing GABAA receptors: α1β1γ2, α2β3γ2, α3β3γ2 and α5β3γ2 (provided by Merck Co., NJ, USA). Cells were seeded in 100 mm culture plates in DMEM/F12 medium containing 10% scrum and antibiotics in 5% CO2 and allowed to grow for 1-2 days. GABAAR expression was then induced by dexamethasone as follows: 0.5 μM for 1 day for α5 containing and 2 μM for 3 days for α1, α2 and α3 containing GABAARs. After induction, cells were collected by scraping into Dulbecco's Phosphate buffered saline (DPBS, pH 7.4, Invitrogen, Carlsbad, CA, USA) and centrifuged at 150×g for 10 min. The pellet was washed twice by re-suspension and centrifugation. The cell pellets from at least 5 different preps were combined, suspended in the binding assay buffer (50 mM KH2PO4; 1 mM EDTA; 0.2 M KCl, pH 7.4) and membranes prepared by sonication (3-5 times, 30 sec) using Branson Sonifier 150 (G. Heinmann, Germany). Protein content was determined using BCA assay (Bio-Rad Labs, Reinach, Switzerland) with Bovine Serum Albumin (Sigma Aldrich, St. Louis, MO, USA) as the standard. Aliquots were prepared and stored at −20° C. for further use in binding assays.
Ligand Binding: Saturation binding curves were obtained by incubating membranes with increasing concentrations (0.01-8 nM) of [^3H]Rol5-1788 (Flumazepil, 75-85 Ci/mmol, PerkinElmer, MA, USA), with nonspecific binding measured in the presence of 10 μM diazepam.
All binding assays were performed for 1 h at 4° C. in assay buffer. The total assay volume was 0.5 ml containing 0.2 mg/ml protein for α5 and 0.4 mg/ml for α1, α2, and α3 containing GABAAR membranes. Incubations were terminated by filtration through GF/B filters using a 24-Cell Harvestor (Brandel, Gaithersburg, MD, USA) followed by 3 washes with ice-cold assay buffer. […] Next day, radioactivity was obtained using a scintillation counter (Beckman Coulter, Brea, CA, USA). […]

MAM-treated rats = conditions: cited from earlier work
aged-impaired (AI) rats = experiment: Morris water maze behavioral task, ICV infusion; format: in vivo, rat; conditions: 100 μg ICV
Procedure: The effects of 6,6 dimethyl-3-(3-hydroxypropyl)thio-1-(thiazol-2-yl)-6,7-dihydro-2-benzothiophen-4(5H)-one on the in vivo spatial memory retention of aged-impaired (AI) rats were assessed in a Morris water maze behavioral task. A water maze is a pool surrounded with a novel set of patterns relative to the maze.
Cognitively impaired aged rats were implanted unilaterally with a cannula into the lateral ventricle. Stereotaxic coordinates were 1.0 mm posterior to bregma, 1.5 mm lateral to midline, and 3.5 mm ventral to the skull surface. After about a week of recovery, the rats were pre-trained in a water maze for 2 days (6 trials per day) to locate a submerged escape platform hidden underneath the surface of the pool, in which the escape platform location varied from day to day. No intracerebroventricular (ICV) infusion was given during pre-training.
After pre-training, rats received ICV infusion of either 100 μg 6,6 dimethyl-3-(3-hydroxypropyl)thio-1-(thiazol-2-yl)-6,7-dihydro-2-benzothiophen-4(5H)-one (n=6) in 5 μl DMSO or vehicle DMSO (n=5) 40 min prior to water maze training and testing. Training consisted of 8 trials per day for 2 days where the hidden escape platform remained in the same location. Rats were given 60 seconds to locate the platform with a 60 seconds inter-trial interval. The rats were given a probe test (120 seconds) 24 hr. after the end of training where the escape platform was removed. During the training, there were 4 blocks, where each block had 4 training trials.
During a test trial 24 hr. after training, the escape platform was removed. The search/swim pattern of the rats was used to measure whether the rats remember where the escape platform was located during pre-trial training in order to test for the long-term memory of the rats. In this trial, “target annulus” is a designated area 1.5 times the size of the escape platform around the area where the platform was located during pre-trial training. “Opposite annulus” is a control area of the same size as the size of the target annulus, which is located opposite to the target annulus in the pool. If the rats had good long term memory, they would tend to search in the area surrounding the location where the platform was during the pre-trial training (i.e., the “target” annulus; and not the “opposite” annulus). “Time in annulus” is the amount of time in seconds that the rat spent in the target or opposite annulus area. “Number (#) of crossings” in annulus is the number of times the rat swam across the target or opposite annulus area.

α5β2γ2 subtype GABAAR = molecular target: T2, α5β2γ2 subtype GABAAR (Homo sapiens, UniProt P18507+P31644); experiment: Positive allosteric modulator activity: potentiation of EC20 GABA current in oocytes; format: cell-based; conditions: read-out: GABA α5 Functional Data (potentiation), @ 100 nM, reported as ranges
T2 construct: expressed in transfected cells
T2 sequence (P31644 32-462): T1 sequence (P31644 32-462)
T2 sequence (P47870 25-512 partner limits assumed): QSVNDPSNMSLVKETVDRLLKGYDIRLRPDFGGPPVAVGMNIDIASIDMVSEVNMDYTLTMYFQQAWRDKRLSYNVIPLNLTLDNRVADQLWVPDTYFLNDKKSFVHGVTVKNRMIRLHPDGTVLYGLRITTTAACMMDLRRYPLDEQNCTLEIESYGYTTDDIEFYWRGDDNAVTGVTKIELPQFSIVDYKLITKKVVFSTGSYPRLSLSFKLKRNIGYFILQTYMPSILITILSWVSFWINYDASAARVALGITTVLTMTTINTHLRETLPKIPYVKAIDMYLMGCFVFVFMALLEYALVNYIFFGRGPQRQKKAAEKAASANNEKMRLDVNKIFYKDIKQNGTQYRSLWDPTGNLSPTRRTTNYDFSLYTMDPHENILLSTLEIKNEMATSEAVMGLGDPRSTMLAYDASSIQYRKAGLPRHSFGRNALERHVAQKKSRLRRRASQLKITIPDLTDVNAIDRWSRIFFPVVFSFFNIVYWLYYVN
T2 sequence (P18507 40-467 limits assumed): T1 sequence (P18507 40-467 limits assumed)
Method in brief: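 Xenopus oocytes injected with 1 ng α5:β2:γ2 cDNA (1:1:10 by weight) and recorded on day 2 by two-electrode voltage clamp under MBS superfusion. Potentiation (%) = Itest/IGABA at EC20 GABA; each oocyte used for one concentration only.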

[1] = probe test 24 hr. after training

## C#Cc1ccc2c(c1)-n1nnc(COC)c1Cc1c(C3=N[C@@H](C(C)C)CO3)ncn1-2 [Compound 384]
α5β3γ2 GABAA receptors
  pKi: 6.00 to 7.00

## C#Cc1ccc2c(c1)C(c1ccccc1F)=N[C@H](C)c1c(C(=O)OCC)ncn1-2 [SH-053-2′F—R—CH3]
MAM-treated rats; MAM rats, systemic or infused into ventral HPC, to levels of saline-treated rats
  number of spontaneously active DA neurons in the ventral tegmental area (VTA): reduces
MAM-treated rats; MAM-treated rats
  increased locomotor response to amphetamine: reduced
MAM-treated rats; saline-treated and MAM-treated animals
  cortical-evoked responses of HPC neurons: diminished

## CC1(C)CC(=O)c2c(SCCCO)sc(-c3nccs3)c2C1 [6,6 dimethyl-3-(3-hydroxypropyl)thio-1-(thiazol-2-yl)-6,7-dihydro-2-benzothiophen-4(5H)-one]
aged-impaired (AI) rats; beginning of training (block 1)
  time to find the escape platform: about 24 seconds
aged-impaired (AI) rats; end of training (block 4)
  time to find the escape platform: about 9.6 seconds
aged-impaired (AI) rats; [1]
  number of crossings of target annulus compared to opposite annulus: more often
  time in target annulus compared to opposite annulus: significantly more time in the target annulus

## COCc1nnc2n1Cc1c(-c3ncco3)ncn1-c1cc(Cl)ccc1-2 [Compound 458]
α5β3γ2 GABAA receptors; reported as ranges
  pKi: < 6.00

## COC1C=C2C(=CC1)n1cnc(-c3noc(C(C)C)n3)c1Cn1c(COc3ccccc3Cl)nnc12 (centres unmarked) [Compound 175]
α5β2γ2 subtype GABAAR
  activation at 0.1 µM: 20 to 50%
α5β3γ2 GABAA receptors
  pKi: > 7.00
